Assay results reported in PubChem BioAssay AID1117349.
Activity calls are given as the source filed them. How the calls were made is not given here.

Tested on: HeLa cells, increased 2N DNA content (cell cycle)
Test: rise of 2N DNA cells, HeLa – IC50, dose response (AID 1117349)

CCCCCCCCCCCC(=O)[O][Sn]([CH2]CCC)([CH2]CCC)[O]C(=O)CCCCCCCCCCC
IC50: > 10 µM (inactive)

C[n+]1c2cc(N)ccc2cc2ccc(N)cc21 (tested in a mixture with another compound)
IC50: 3.39 µM

Cc1ccc([N+](=O)[O-])[c]2c1[O][Hg]2
IC50: > 10 µM (inactive)

CCCCCCCCCCCCCC[N+](C)(C)C
IC50: > 10 µM (inactive)
